In paper PMC11062899, “De novo development of small cyclic peptides that are orally bioavailable” (Nature Chemical Biology, 2023):
Where “and” joins values, the source holds several entries; their conditions need not be identical. Equal values may be shown once. Read-outs that look alike come from different tables or passages of the source.

Experiments:
human α-thrombin = human α-thrombin (Homo sapiens, UniProt P00734); assay: Protease inhibition, Ki for human α-thrombin (fluorogenic substrate Z-Gly-Gly-Arg-AMC); type: biochemical; conditions: for Human alpha thrombin inhibition, slope normalized to DMSO: replicates R1-R3
Description: (§1) The inhibition constants (Ki) of cyclic peptides were calculated by measuring thrombin inhibition in the presence of different concentrations of the cyclic peptides. […] Human α-thrombin (Molecular Innovations) and rat α-thrombin (Molecular Innovations) were used at final concentrations of 2 nM and 3 nM, respectively, and fluorogenic substrate (Z-Gly-Gly-Arg-AMC, Bachem) was used at a concentration of 50 μM. Enzymatic activity was determined by measuring fluorescent gain on a Tecan Infinite M200 Pro microplate reader (excitation: 360 nm, emission: 465 nm) or a PHERAstar FSX microplate reader (excitation: 380 nm, emission: 440 nm) for 30 min at 25 °C with a fluorescent readout every 3 min. The two instruments were controlled with Tecan Infinite M200 Pro instrument software (iControl, version 1.12) and PHERAstar FSX software (version 5.70, edition 8), respectively. Protease inhibition was calculated by comparing the enzymatic activity to a control without cyclic peptide.
(§2) Half maximal inhibitory concentration (IC50) values were determined using a four-parameter logistic regression model in GraphPad Prism 9 to fit sigmoidal curves to the acquired data points according to equation (2) below.2 y=b+a−b/1+10^(logIC50−x)p where a and b represent the measured inhibition maximum and minimum, respectively; x is the logarithm of peptide concentration; y is the thrombin activity compared to a control without the cyclic peptide; and p is the Hill coefficient.
(§3) Ki values were calculated using the IC50 and the Cheng–Prusoff equation (equation (3)).3 Ki=IC50/1+S0/Km where Km is the Michaelis–Menten constant of the enzyme for the substrate used in the assay, and [S]0 is the initial substrate concentration.

rat α-thrombin = biological target: T1, rat α-thrombin (Rattus norvegicus, UniProt P18292); assay: Protease inhibition, Ki for rat α-thrombin (fluorogenic substrate Z-Gly-Gly-Arg-AMC); type: biochemical; conditions: for Rat alpha thrombin inhibition, slope normalized to DMSO: replicates R1-R3
T1 construct: rat α-thrombin (Molecular Innovations) were used at final concentrations of 2 nM and 3 nM; purchased Molecular Innovations
Description: as §1, §2, §3

[1] = Passive artificial membrane permeability (PAMPA);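 for Permeability% Average: top well sample relative to theoretical equilibrium sample by TIC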
[2] = peptide concentration 1.00E+02 uM
[3] = peptide concentration 1.19E-05 uM
[4] = peptide concentration 1.22E-02 uM
[5] = peptide concentration 1.25E+01 uM
[6] = peptide concentration 1.53E-03 uM
[7] = peptide concentration 1.56E+00 uM
[8] = peptide concentration 1.91E-04 uM
[9] = peptide concentration 1.95E-01 uM
[10] = peptide concentration 2.38E-05 uM
[11] = peptide concentration 2.44E-02 uM
[12] = peptide concentration 2.50E+01 uM
[13] = peptide concentration 3.05E-03 uM
[14] = peptide concentration 3.12E+00 uM
[15] = peptide concentration 3.81E-04 uM
[16] = peptide concentration 3.91E-01 uM
[17] = peptide concentration 4.77E-05 uM
[18] = peptide concentration 4.88E-02 uM
[19] = peptide concentration 5.00E+01 uM
[20] = peptide concentration 6.10E-03 uM
[21] = peptide concentration 6.25E+00 uM
[22] = peptide concentration 7.63E-04 uM
[23] = peptide concentration 7.81E-01 uM
[24] = peptide concentration 9.54E-05 uM
[25] = peptide concentration 9.77E-02 uM

For `O=C1C[C@H]2CCCN2C(=O)[C@H](Cc2ccccc2)NC(=O)[C@@H](NC(=O)c2ccc(Cl)s2)CCCC=CCCCN1` [compound 42], the Ki (human α-thrombin; average of R1-R3, read-out: Human alpha thrombin inhibition, Ki Average) was 321 nM, the “Human alpha thrombin inhibition, slope normalized to DMSO” value (human α-thrombin; [2]) was 8.6 and 8.9 and 9.5 and the “Human alpha thrombin inhibition, slope normalized to DMSO” value (human α-thrombin; [3]) was 104.7 and 99.7 and 99.1. For the same molecule, the “Human alpha thrombin inhibition, slope normalized to DMSO” value (human α-thrombin; [4]) was 46.3 and 101.7 and 85.0, the “Human alpha thrombin inhibition, slope normalized to DMSO” value (human α-thrombin; [5]) was 5.3 and 13.8 and 11.9 and the “Human alpha thrombin inhibition, slope normalized to DMSO” value (human α-thrombin; [6]) was 49.9 and 105.6 and 101.7. For the same molecule, the “Human alpha thrombin inhibition, slope normalized to DMSO” value (human α-thrombin; [7]) was 36.6 and 35.2 and 35.3, the “Human alpha thrombin inhibition, slope normalized to DMSO” value (human α-thrombin; [8]) was 98.2 and 106.9 and 104.5 and the “Human alpha thrombin inhibition, slope normalized to DMSO” value (human α-thrombin; [9]) was 49.0 and 78.5 and 77.7. The “Human alpha thrombin inhibition, slope normalized to DMSO” value (human α-thrombin; [10]) was 110.3 and 103.8 and 102.6, the “Human alpha thrombin inhibition, slope normalized to DMSO” value (human α-thrombin; [11]) was 87.9 and 84.7 and 102.8 and the “Human alpha thrombin inhibition, slope normalized to DMSO” value (human α-thrombin; [12]) was 10.1 and 9.5 and 12.3. The “Human alpha thrombin inhibition, slope normalized to DMSO” value (human α-thrombin; [13]) was 53.7 and 99.4 and 62.7, the “Human alpha thrombin inhibition, slope normalized to DMSO” value (human α-thrombin; [14]) was 11.6 and 29.8 and 12.4 and the “Human alpha thrombin inhibition, slope normalized to DMSO” value (human α-thrombin; [15]) was 68.4 and 103.9 and 101.2. The “Human alpha thrombin inhibition, slope normalized to DMSO” value (human α-thrombin; [16]) was 64.4 and 65.7 and 57.7, the “Human alpha thrombin inhibition, slope normalized to DMSO” value (human α-thrombin; [17]) was 106.6 and 102.8 and 103.1 and the “Human alpha thrombin inhibition, slope normalized to DMSO” value (human α-thrombin; [18]) was 55.2 and 93.5 and 76.8. The “Human alpha thrombin inhibition, slope normalized to DMSO” value (human α-thrombin; [19]) was 11.6 (2×) and 7.0, the “Human alpha thrombin inhibition, slope normalized to DMSO” value (human α-thrombin; [20]) was 92.4 and 103.3 and 95.4 and the “Human alpha thrombin inhibition, slope normalized to DMSO” value (human α-thrombin; [21]) was 8.5 and 19.8 and 17.9. The “Human alpha thrombin inhibition, slope normalized to DMSO” value (human α-thrombin; [22]) was 104.5 and 110.5 and 71.2, the “Human alpha thrombin inhibition, slope normalized to DMSO” value (human α-thrombin; [23]) was 53.0 and 40.3 and 48.0 and the “Human alpha thrombin inhibition, slope normalized to DMSO” value (human α-thrombin; [24]) was 104.5 and 106.6 and 99.3. For the same molecule, the “Human alpha thrombin inhibition, slope normalized to DMSO” value (human α-thrombin; [25]) was 84.9 and 80.9 and 75.3, the IC50 (human α-thrombin; single replicates R1-R3, read-out: Human alpha thrombin inhibition, IC50) was 141 nM and 513 nM and 595 nM and the Ki (human α-thrombin; single replicates R1-R3, read-out: Human alpha thrombin inhibition, Ki) was 108 nM (2×) and 396 nM (2×) and 459 nM (2×). The Ki (rat α-thrombin; average of R1-R3, read-out: Rat alpha thrombin inhibition, Ki Average) was 104 nM, the “Rat alpha thrombin inhibition, slope normalized to DMSO” value (rat α-thrombin; [2]) was 11.1 and 8.8 and 6.3 and the “Rat alpha thrombin inhibition, slope normalized to DMSO” value (rat α-thrombin; [3]) was 97.9 and 89.1 and 104.7. The “Rat alpha thrombin inhibition, slope normalized to DMSO” value (rat α-thrombin; [4]) was 95.5 and 96.6 and 90.7, the “Rat alpha thrombin inhibition, slope normalized to DMSO” value (rat α-thrombin; [5]) was 7.6 and 6.9 and 7.3 and the “Rat alpha thrombin inhibition, slope normalized to DMSO” value (rat α-thrombin; [6]) was 101.7 and 97.0 and 102.3. For the same molecule, the “Rat alpha thrombin inhibition, slope normalized to DMSO” value (rat α-thrombin; [7]) was 15.7 and 15.6 and 13.6, the “Rat alpha thrombin inhibition, slope normalized to DMSO” value (rat α-thrombin; [8]) was 90.1 and 101.9 and 101.4 and the “Rat alpha thrombin inhibition, slope normalized to DMSO” value (rat α-thrombin; [9]) was 54.3 and 44.0 and 44.2. The “Rat alpha thrombin inhibition, slope normalized to DMSO” value (rat α-thrombin; [10]) was 98.8 and 105.1 and 93.8, the “Rat alpha thrombin inhibition, slope normalized to DMSO” value (rat α-thrombin; [11]) was 96.7 and 81.8 and 91.8 and the “Rat alpha thrombin inhibition, slope normalized to DMSO” value (rat α-thrombin; [12]) was 6.5 and 0.4 and 5.6. For the same molecule, the “Rat alpha thrombin inhibition, slope normalized to DMSO” value (rat α-thrombin; [13]) was 104.2 and 96.1 and 93.1, the “Rat alpha thrombin inhibition, slope normalized to DMSO” value (rat α-thrombin; [14]) was 7.9 and 9.5 and 5.7 and the “Rat alpha thrombin inhibition, slope normalized to DMSO” value (rat α-thrombin; [15]) was 106.7 and 100.9 and 91.0. For the same molecule, the “Rat alpha thrombin inhibition, slope normalized to DMSO” value (rat α-thrombin; [16]) was 38.3 and 34.0 and 35.5, the “Rat alpha thrombin inhibition, slope normalized to DMSO” value (rat α-thrombin; [17]) was 98.1 and 100.4 and 100.7 and the “Rat alpha thrombin inhibition, slope normalized to DMSO” value (rat α-thrombin; [18]) was 84.8 and 84.4 and 72.7. For the same molecule, the “Rat alpha thrombin inhibition, slope normalized to DMSO” value (rat α-thrombin; [19]) was 0.8 and 7.3 and 2.5, the “Rat alpha thrombin inhibition, slope normalized to DMSO” value (rat α-thrombin; [20]) was 104.0 and 93.5 and 94.8 and the “Rat alpha thrombin inhibition, slope normalized to DMSO” value (rat α-thrombin; [21]) was 7.5 and 8.8 and 7.9. The “Rat alpha thrombin inhibition, slope normalized to DMSO” value (rat α-thrombin; [22]) was 97.9 and 91.4 and 101.5, the “Rat alpha thrombin inhibition, slope normalized to DMSO” value (rat α-thrombin; [23]) was 26.2 and 23.7 and 23.1 and the “Rat alpha thrombin inhibition, slope normalized to DMSO” value (rat α-thrombin; [24]) was 96.9 and 98.1 and 96.1. For the same molecule, the “Rat alpha thrombin inhibition, slope normalized to DMSO” value (rat α-thrombin; [25]) was 69.5 and 66.8, the IC50 (rat α-thrombin; single replicates R1-R3, read-out: Rat alpha thrombin inhibition, IC50) was 215 nM and 179 nM and 168 nM and the Ki (rat α-thrombin; single replicates R1-R3, read-out: Rat alpha thrombin inhibition, Ki) was 119 nM (2×) and 98.9 nM (2×) and 92.9 nM (2×). For the same molecule, the “PAMPA permeability: % permeability” value ([1]; 50 μM, 12–18 h, acceptor concentration relative to equilibrium) was 70 ± 22%, the “Permeability% (single replicates R1–R3)” value ([1]; 50 μM, 13 h (Fig. 5d)) was 83.98% and 44.59% and 81.97% and the “Permeability% Average” value ([1]; 50 μM, 13 h (Fig. 5d)) was 70.2%. For the same molecule, the Papp at 50 μM ([1]; PAMPA, pH 7.4) was 11.2 ×10⁻⁶ cm/s.
